In ChEMBL document CHEMBL4831488, “Design, synthesis, docking, molecular dynamics and bioevaluation studies on novel N-methylpicolinamide and thienopyrimidine derivatives with inhibiting NF-κB and TAK1 activities: Cheminformatics tools RDKit applied in drug design” (Eur J Med Chem, 2021):
Activity calls are given as the source filed them. The calls are words filed in the database; no cut-off is given here.

Columns and labels:
[1] = test system: HCT-116; assay: Cytotoxicity against human HCT-116 cells assessed as inhibition of cell growth at 20 uM measured after 72 hrs by MTT assay relative to control; format: functional
[2] = test system: A549; assay: Cytotoxicity against human A549 cells assessed as inhibition of cell growth at 20 uM measured after 72 hrs by MTT assay relative to control; format: functional
[3] = test system: A549; assay: Cell cycle arrest in human A549 cells assessed as accumulation at G0/G1 phase at 0.6 uM measured after 24 hrs by PI staining based Flow cytometry method (reference value: 55.54%); format: functional
[4] = test system: A549; assay: Cell cycle arrest in human A549 cells assessed as accumulation at G2/M phase at 1.2 uM measured after 24 hrs by PI staining based Flow cytometry method (reference value: 10.2%); format: functional
[5] = test system: A549; assay: Induction of apoptosis in human A549 cells assessed as early apoptotic cells at 0.6 uM measured by annexinV-FITC/propidium iodide staining based flow cytometry analysis (reference value: 1.17%); format: functional
[6] = test system: A549; assay: Induction of apoptosis in human A549 cells assessed as late apoptotic cells at 0.6 uM measured by annexinV-FITC/propidium iodide staining based flow cytometry analysis (reference value: 0.64%); format: functional
[7] = test system: A549; assay: Induction of apoptosis in human A549 cells assessed as early apoptotic cells at 1.8 uM measured by annexinV-FITC/propidium iodide staining based flow cytometry analysis (reference value: 1.17%); format: functional
[8] = biological target: T1, Nuclear factor NF-kappa-B complex (Homo sapiens) (UniProt Q00653+P19838+Q04206); assay: Inhibition of human NF-kB in human HCT-116 cells assessed as suppression of TNF-alpha induced IkBalpha expression at 0.5 to 5 uM pretreated with compounds for 24 hrs followed by TNF-alpha stimulation for 10 mins by Western blot analysis; format: cell-based; details: dose 0.5-5 µM, time 1450.0 min
T1 sequence (P19838 whole entry, looked up): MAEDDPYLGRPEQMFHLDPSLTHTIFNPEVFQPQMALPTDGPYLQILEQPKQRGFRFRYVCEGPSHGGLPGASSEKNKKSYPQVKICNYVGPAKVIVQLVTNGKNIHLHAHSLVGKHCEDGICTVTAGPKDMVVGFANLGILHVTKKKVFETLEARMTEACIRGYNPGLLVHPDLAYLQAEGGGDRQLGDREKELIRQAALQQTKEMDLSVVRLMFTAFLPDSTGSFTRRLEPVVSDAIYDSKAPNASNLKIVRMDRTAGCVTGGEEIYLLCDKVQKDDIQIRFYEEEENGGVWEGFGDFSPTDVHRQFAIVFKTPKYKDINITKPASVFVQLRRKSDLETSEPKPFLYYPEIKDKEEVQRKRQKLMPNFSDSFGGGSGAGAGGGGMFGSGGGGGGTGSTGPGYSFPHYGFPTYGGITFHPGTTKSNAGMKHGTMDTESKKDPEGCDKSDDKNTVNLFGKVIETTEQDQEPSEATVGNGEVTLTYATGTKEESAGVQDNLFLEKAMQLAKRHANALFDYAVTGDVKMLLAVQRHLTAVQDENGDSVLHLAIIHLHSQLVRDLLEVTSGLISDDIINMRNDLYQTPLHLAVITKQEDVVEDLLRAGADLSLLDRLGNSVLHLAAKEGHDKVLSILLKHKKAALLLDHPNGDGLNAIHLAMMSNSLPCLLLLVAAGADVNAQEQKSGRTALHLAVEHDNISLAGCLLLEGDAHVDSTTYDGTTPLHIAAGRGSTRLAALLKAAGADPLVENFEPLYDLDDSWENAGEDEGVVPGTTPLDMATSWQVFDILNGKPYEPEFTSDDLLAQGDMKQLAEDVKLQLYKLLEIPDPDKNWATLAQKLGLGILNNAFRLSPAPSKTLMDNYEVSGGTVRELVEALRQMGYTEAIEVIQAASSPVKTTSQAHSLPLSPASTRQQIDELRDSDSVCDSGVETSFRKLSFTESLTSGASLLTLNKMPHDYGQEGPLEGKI
T1 sequence (Q00653 whole entry, looked up): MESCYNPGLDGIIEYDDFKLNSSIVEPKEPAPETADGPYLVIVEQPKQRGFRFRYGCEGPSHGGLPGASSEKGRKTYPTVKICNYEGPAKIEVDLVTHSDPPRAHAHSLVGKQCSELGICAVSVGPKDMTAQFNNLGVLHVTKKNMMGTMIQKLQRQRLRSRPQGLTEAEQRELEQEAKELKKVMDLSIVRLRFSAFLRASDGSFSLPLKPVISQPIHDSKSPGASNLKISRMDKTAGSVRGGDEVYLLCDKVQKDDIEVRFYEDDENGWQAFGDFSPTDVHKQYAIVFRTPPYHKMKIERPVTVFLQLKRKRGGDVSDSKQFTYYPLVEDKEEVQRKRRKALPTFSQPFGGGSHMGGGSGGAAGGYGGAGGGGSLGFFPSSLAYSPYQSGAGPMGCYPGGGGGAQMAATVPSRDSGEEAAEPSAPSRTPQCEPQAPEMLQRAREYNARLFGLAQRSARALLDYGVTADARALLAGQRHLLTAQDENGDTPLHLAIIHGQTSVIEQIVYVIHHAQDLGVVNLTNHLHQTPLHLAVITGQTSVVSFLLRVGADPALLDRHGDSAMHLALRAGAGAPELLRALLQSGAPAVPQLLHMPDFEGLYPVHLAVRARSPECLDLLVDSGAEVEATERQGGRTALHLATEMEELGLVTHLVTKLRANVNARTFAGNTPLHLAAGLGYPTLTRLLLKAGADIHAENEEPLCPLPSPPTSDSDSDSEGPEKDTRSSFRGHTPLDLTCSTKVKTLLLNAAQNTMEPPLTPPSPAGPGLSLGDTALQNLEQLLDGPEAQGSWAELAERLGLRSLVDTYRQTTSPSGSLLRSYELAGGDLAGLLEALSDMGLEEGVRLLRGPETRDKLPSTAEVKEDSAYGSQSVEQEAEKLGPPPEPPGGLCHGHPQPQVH
T1 sequence (Q04206 whole entry, looked up): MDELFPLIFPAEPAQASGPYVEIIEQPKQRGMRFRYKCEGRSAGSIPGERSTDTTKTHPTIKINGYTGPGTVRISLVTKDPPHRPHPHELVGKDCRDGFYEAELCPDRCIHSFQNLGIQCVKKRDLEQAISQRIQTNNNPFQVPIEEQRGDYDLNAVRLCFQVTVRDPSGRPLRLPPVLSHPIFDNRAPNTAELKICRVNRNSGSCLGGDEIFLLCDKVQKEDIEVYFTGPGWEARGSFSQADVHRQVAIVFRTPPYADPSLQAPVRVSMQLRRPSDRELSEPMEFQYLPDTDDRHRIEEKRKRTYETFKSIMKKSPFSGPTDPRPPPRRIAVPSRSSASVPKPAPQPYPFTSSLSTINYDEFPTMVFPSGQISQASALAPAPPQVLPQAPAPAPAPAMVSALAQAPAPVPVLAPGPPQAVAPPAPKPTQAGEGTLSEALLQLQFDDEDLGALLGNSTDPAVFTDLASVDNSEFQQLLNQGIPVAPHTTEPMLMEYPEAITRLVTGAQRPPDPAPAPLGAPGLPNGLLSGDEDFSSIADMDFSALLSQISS

[9] = biological target: T1, Nuclear factor NF-kappa-B complex (Homo sapiens); assay: Inhibition of human NF-kB in human A549 cells assessed as suppression of TNF-alpha induced p-65 expression at 0.5 to 5 uM pretreated with compounds for 24 hrs followed by TNF-alpha stimulation for 10 mins by Western blot analysis; format: cell-based; details: dose 0.5-5 µM, time 1450.0 min
[10] = biological target: T1, Nuclear factor NF-kappa-B complex (Homo sapiens); assay: Inhibition of human NF-kB in human A549 cells assessed as suppression of TNF-alpha induced IkBalpha expression at 0.5 to 5 uM pretreated with compounds for 24 hrs followed by TNF-alpha stimulation for 10 mins by Western blot analysis; format: cell-based; details: dose 0.5-5 µM, time 1450.0 min

inhibition [8]: Active
inhibition [9]: Active
inhibition [10]: Active
SMILES: CNC(=O)c1cc(Oc2ccc(Nc3nccc(N4CCCCC4)n3)cc2)ccn1
inhibition at 20 µM [1]: 69.8%
inhibition at 20 µM [2]: 63.4%
Activity [3]: 60.53%
Activity [4]: 23.68%
Activity [5]: 8.16%
Activity [6]: 3.46%
Activity [7]: 25.4%
